From ChEMBL document CHEMBL1165948, “The scope of thallium nitrate oxidative cyclization of chalcones; synthesis and evaluation of isoflavone and aurone analogs for their inhibitory activity against interleukin-5” (Bioorg Med Chem, 2010) come the findings set out here.

Broadly, the inhibition is the share of the control response that was lost under treatment.

The target in this test is T1, Interleukin-5 (Mus musculus) (UniProt P04401).
T1 sequence (whole entry): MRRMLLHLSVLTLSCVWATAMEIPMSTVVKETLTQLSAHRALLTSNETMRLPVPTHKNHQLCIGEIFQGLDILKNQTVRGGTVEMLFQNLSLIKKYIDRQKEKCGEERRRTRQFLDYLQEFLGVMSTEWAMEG
The test can be described thus: Inhibition of IL5-mediated proliferation of mouse Y16 cells at 50 uM by WST1 assay. Type of test: cell-based.
Compound `O=C1/C(=C/c2ccc(Cl)cc2)Oc2cccc(OCC3CCCCC3)c21` showed an inhibition of 12.2%.
In the case of `COc1ccc(-c2coc3cccc(OCC4CCCCC4)c3c2=O)c(OC)c1` it was 15.6%; in that of `O=c1c(-c2ccc(O[C@@H]3O[C@H](CO)[C@@H](O)[C@H](O)[C@H]3O)cc2)coc2cc(O)cc(O)c12`, 92.1%.
`O=c1c(-c2ccc(O)cc2)coc2cccc(OCC3CCCCC3)c12` registered an inhibition of 91.7%.
The compound `COc1cc(-c2coc3cccc(OCC4CCCCC4)c3c2=O)ccc1O` displayed an inhibition of 15.7%.
In the case of `O=C1/C(=C/c2ccc([N+](=O)[O-])cc2)Oc2cccc(OCC3CCCCC3)c21` it was 5.7%.
In the case of `O=Cc1ccc(/C=C2\Oc3cccc(OCC4CCCCC4)c3C2=O)cc1` it was 8%; in that of `COc1ccc(-c2coc3cccc(OCC4CCCCC4)c3c2=O)cc1OC`, 30.6%.
In the case of `COc1cc(-c2coc3cccc(OCC4CCCCC4)c3c2=O)ccc1OCc1ccccc1` it was 99.8%; in that of `CCc1ccc(/C=C2\Oc3cccc(OCC4CCCCC4)c3C2=O)cc1`, 3.8%.
`CCc1ccc(-c2coc3cccc(OCC4CCCCC4)c3c2=O)cc1` displayed an inhibition of 9.7%.
In the case of `O=C1/C(=C/c2ccccc2)Oc2cccc(OCC3CCCCC3)c21` it was 3.1%.
In the case of `COc1ccc(-c2coc3cccc(OCC4CCCCC4)c3c2=O)cc1` it was 15.4%; in that of `COC(=O)c1ccc(/C=C2\Oc3cccc(OCC4CCCCC4)c3C2=O)cc1`, 3.5%; in that of `COCOc1ccc(-c2coc3cccc(OCC4CCCCC4)c3c2=O)cc1`, 10.5%.
In the case of `COc1cc(-c2coc3cccc(OCC4CCCCC4)c3c2=O)cc(OC)c1OC` it was greater than 100%.
